Patent publication US20090264292A1, “HERBICIDAL COMPOSITION” (ISHIHARA SANGYO KAISHA, LTD., priority 2005, published 2009)

Key:
Assay type in all cases: in vivo
[1] = system: velvetleaf (Abutilon theophrasti MEDIC.); test: Test Example 1: pot test, foliar application, velvetleaf; settings: 2.8 leaf stage, 21st day after application, read-out: Velvetleaf Growth inhibition rate (%) Observed
Description: (§1) Upland field soil was put into a 1/1,000,000 ha pot, and seeds of various plants were sown. Then, when the plants reached the prescribed leaf stages ((1) 3.6 leaf stage of crabgrass (Digitaria sanguinalis L.), and (2), 2.8 leaf stage of velvetleaf (Abutilon theophrasti MEDIC.)), a prescribed amount of the herbicidal composition was diluted with water corresponding to 300 L/ha, and foliar application was carried out by means of a small size spray. On the 21st day after the application, the state of growth of each plant was visually observed, and the growth inhibition rate (%) evaluated in accordance with the following evaluation standard (observed value) and the growth inhibition rate (%) calculated by the above-mentioned Colby method (expected value) are shown in Tables 1 and 2 .
(§2) Growth inhibition rate (%)=0% (equivalent to the non-treated area) to 100% (complete kill)

[2] = system: velvetleaf (Abutilon theophrasti MEDIC.); test: Test Example 3: pot test, foliar application, velvetleaf; settings: 2.3 to 2.5 leaf stage, 14th day after application, read-out: Velvetleaf Growth inhibition rate (%) Observed
Description: as §2
(§3) Upland field soil was put into a 1/1,000,000 ha pot, and seeds of velvetleaf (Abutilon theophrasti MEDIC.) were sown. Then, when velvetleaf reached 2.3 to 2.5 leaf stage, a prescribed amount of the herbicidal composition was diluted with water corresponding to 300 L/ha, and foliar application was carried out by means of a small size spray.
On the 14th day after the application, the state of growth of velvetleaf was visually observed and evaluated in the same manner as in the above Test Example 1.

[3] = system: crabgrass (Digitaria sanguinalis L.); test: Test Example 1: pot test, foliar application, crabgrass; settings: 3.6 leaf stage, 21st day after application, read-out: Crabgrass Growth inhibition rate (%) Observed
Description: as §1, §2

[4] = system: velvetleaf (Abutilon theophrasti MEDIC.); test: Test Example 2: pot test, foliar application, velvetleaf; settings: 2.9 leaf stage, 21st day after application, read-out: Velvetleaf Growth inhibition rate (%) Observed
Description: as §2
as §3, with “2.9” for “2.3 to 2.5”
On the 21st day after the application, the state of growth of velvetleaf was visually observed and evaluated in the same manner as in the above Test Example 1.

Row | SMILES | inhibition at 50 g/ha ([1]; 50 g/ha) [%] | inhibition at 5 g/ha ([2]; 5 g/ha) [%] | inhibition at 10 g/ha ([2]; 10 g/ha) [%] | inhibition at 15 g/ha ([2]; 15 g/ha) [%] | inhibition at 25 g/ha ([3]; 25 g/ha) [%] | inhibition at 25 g/ha ([4]; 25 g/ha) [%] | inhibition at 250 g/ha ([1]; 250 g/ha) [%] | inhibition at 500 g/ha ([1]; 500 g/ha) [%] | inhibition at 1000 g/ha ([2]; 1000 g/ha) [%] | inhibition at 1500 g/ha ([2]; 1500 g/ha) [%] | inhibition at 2000 g/ha ([2]; 2000 g/ha) [%] | inhibition at 250 g/ha ([3]; 250 g/ha) [%] | inhibition at 500 g/ha ([3]; 500 g/ha) [%] | inhibition at 500 g/ha ([4]; 500 g/ha) [%]
1 | COc1cc(OC)nc(NC(=O)NS(=O)(=O)c2ncccc2C(=O)N(C)C)n1 [Compound A-1, 2-(4,6-dimethoxypyrimidin-2-ylcarbamoylsulfamoyl)-N,N-dimethylnicotinamide] | 60 | 5 | 8 | 12 | 53 | 38 | – | – | – | – | – | – | – | –
2 | CCNc1nc(Cl)nc(NC(C)(C)C)n1 [Compound B-1, N^2-tert-butyl-6-chloro-N^4-ethyl-1,3,5-triazine-2,4-diamine] | – | – | – | – | – | – | 57 | 58 | 37 | 43 | 43 | 5 | 8 | 47
